Assay results published in US11439657B2, “Cancer stem cell growth inhibitor using miRNA” (CancerStem Tech Inc., priority 2017, dated 2022).
“Also recorded” adds a separate entry of the source.

Assays:
[1] = test system: cancer stem cell population (ZsGreen+) established from pancreatic cancer cell line Panc-1; assay: Screening of miRNAs: cell count (cell viability) of the cancer stem cell population after transfection; assay type: cell-based, human; details: miRNA 10 pmol/well, lipofectamin 2000, cells counted 48 and 72 hours later, FIG. 4
From the text: A cancer stem cell line was established by transducing a pancreatic cancer cell line (Panc-1) with an ODC (Ornithine Decarboxylase)-Degron system capable of visualizing low metabolism that is a property of cancer stem cells using a retrovirus vector (FIG. 1a). The base sequence coding the used ODC-Degron is as set forth in SEQ ID NO: 10. Usually, cancer stem cells are so 26s proteasome hypometabolic that they cannot degrade the introduced fluorescently labeled Ornithine Decarboxylase Degron, and thus the fluorescent protein sufficiently accumulates to provide visualization.
However, even when the ODC-degron system was introduced into the pancreatic cancer cell line Panc-1, only about 0.06% cells emitting fluorescence (green) were obtained in total. With such a small number of cancer stem cells, a series of experiments including drug screening cannot be performed. Accordingly, further enrichment of cancer stem cells provided a cancer stem cell population in which cells having observed fluorescent coloring (i.e., cancer stem cells) accounted for about 81.18% in total (FIG. 1b). The obtained cancer stem cell population was designated as ZsGreen+.
A cell suspension prepared by suspending the cancer stem cell population (ZsGreen+) in a medium (DMEM medium containing 10% by volume FBS) was seeded in each well of a 24-well plate at a density of 5000 to 10000 cells/well, followed by culture at 37° C. overnight. Thereafter, according to the lipofectamin 2000 protocol, each miRNA was transfected at 10 pmol/well, and 48 hours and 72 hours later, the cells were counted. In addition, tests were also conducted under the same condition on a case where the miRNA was not introduced (untreated group, control), a case where has-miR-34a (SEQ ID NO: 8) was used (positive control) in place of the selected miRNA, and a case where a control miRNA (SEQ ID NO: 9) was used (NC1, negative control) in place of the selected miRNA. In addition, for comparison, the non-cancer stem cell population (ZsGreen−) was used in place of the cancer stem cell population (ZsGreen+) to conduct tests under the same condition.
The ratio of the number of cells under each condition to the number of control cells into which the miRNA was not introduced (cell viability, %) was determined.

[2] = test system: human large bowel cancer cells (DLD1 line); assay: Antitumor effect on human large bowel cancer cells, cell count after transfection; assay type: cell-based; details: 10 pmol/well, FIG. 11; for antitumor effect: 72 hours, positive control hsa-miR-34a; for proliferation inhibitory effect on large bowel cancer cells: cells counted 72 hours after transfection
Method: (§1) A cell suspension prepared by suspending human pancreatic cancer cells (Bxpc3 line) in D-MEM medium (containing 10% by volume FBS) was seeded in each well of a 24-well plate at 3×10^3 cells/well, followed by culture at 37° C. overnight. Thereafter, according to the lipofectamin 2000 protocol, each miRNA was transfected at 10 pmol/well, and 48 hours later, the cells were counted. In addition, tests were also conducted under the same condition on a case where the miRNA was not introduced (untreated group), a case where hsa-miR-34a (SEQ ID NO: 8) was used (positive control) in place of the miRNA, and a case where a control miRNA (SEQ ID NO: 9) was used (control miRNA, negative control) in place of the selected miRNA.
(§2) As to hsa-miR-136-5p, hsa-miR-3065-3p, hsa-miR-4727-5p, hsa-miR-378g, hsa-miR-181a-5p, hsa-miR-362-5p and hsa-miR-608, evaluation was performed of the antitumor effect on human large bowel cancer cells. The specific test method is the same as that for Test Example 4 except that human large bowel cancer cells (DLD1 line) were used as cancer cells, and that the cells were counted 72 hours after transfection.

[3] = test system: human esophageal cancer cells (TE11 line); assay: Antitumor effect on human esophageal cancer cells, cell count after transfection; assay type: cell-based; details: 10 pmol/well, FIG. 12; for antitumor effect: 72 hours, positive control hsa-miR-34a; for proliferation inhibitory effect on esophageal cancer cells: cells counted 72 hours after transfection
Method: as §1
as §2, with “hsa-miR-378g and” for “hsa-miR-378g,”, “hsa-miR-181a-5p,” for “hsa-miR-181a-5p, hsa-miR-362-5p and hsa-miR-608,”, “esophageal” for “large bowel”, “(TE11” for “(DLD1”

[4] = test system: human pancreatic cancer cells (Bxpc3 line); assay: Antitumor effect on human pancreatic cancer cells (1), cell count after transfection; assay type: cell-based; details: 10 pmol/well, FIG. 8; for antitumor effect: 48 hours, positive control hsa-miR-34a; for proliferation inhibitory effect on pancreatic cancer cells: cells counted 48 hours later
Method: as §1

has-miR-34a: positive control miRNA (SEQ ID NO: 8), conventionally considered to have the highest therapeutic effect on solid tumor (UGGCAGUGUCUUAGCUGGUUGU; listed as RNA, chemistry not given here; listed as Homo sapiens) [reference compound]
proliferation inhibitory effect on cancer stem cells (cell viability) [1]: not sufficient

hsa-miR-362-5p: human-derived miR-362-5p; base sequence set forth in SEQ ID NO: 6 as mature miRNA (AAUCCUUGGAACCUAGGUGUGAGU; listed as RNA, chemistry not given here; listed as Homo sapiens)
antitumor effect [2]: much better antitumor effect than that of hsa-miR-34a; also recorded: particularly remarkable antitumor effect
proliferation inhibitory effect on large bowel cancer cells [2]: strong proliferation inhibitory effect
proliferation inhibitory effect on cancer stem cells (cell viability) [1]: effectively suppress proliferation of cancer stem cells; also recorded: prominent proliferation inhibitory effect

hsa-miR-378g: human-derived miR-378g; base sequence set forth in SEQ ID NO: 4 as mature miRNA (ACUGGGCUUGGAGUCAGAAG; listed as RNA, chemistry not given here; listed as Homo sapiens)
antitumor effect [2]: much better antitumor effect than that of hsa-miR-34a
proliferation inhibitory effect on large bowel cancer cells [2]: strong proliferation inhibitory effect
antitumor effect [3]: much better antitumor effect than that of hsa-miR-34a
proliferation inhibitory effect on esophageal cancer cells [3]: strong proliferation inhibitory effect
proliferation inhibitory effect on cancer stem cells (cell viability) [1]: effectively suppress proliferation of cancer stem cells
antitumor effect [4]: much better antitumor effect than that of hsa-miR-34a
proliferation inhibitory effect on pancreatic cancer cells [4]: strong proliferation inhibitory effect

hsa-miR-608: human-derived miR-608; base sequence set forth in SEQ ID NO: 7 as mature miRNA (AGGGGUGGUGUUGGGACAGCUCCGU; listed as RNA, chemistry not given here; listed as Homo sapiens)
antitumor effect [2]: much better antitumor effect than that of hsa-miR-34a; also recorded: particularly remarkable antitumor effect
proliferation inhibitory effect on large bowel cancer cells [2]: strong proliferation inhibitory effect
proliferation inhibitory effect on cancer stem cells (cell viability) [1]: effectively suppress proliferation of cancer stem cells; also recorded: prominent proliferation inhibitory effect

hsa-miR-4727-5p: human-derived miR-4727-5p; base sequence set forth in SEQ ID NO: 3 as mature miRNA (AUCUGCCAGCUUCCACAGUGG; listed as RNA, chemistry not given here; listed as Homo sapiens)
antitumor effect [2]: much better antitumor effect than that of hsa-miR-34a
proliferation inhibitory effect on large bowel cancer cells [2]: strong proliferation inhibitory effect
antitumor effect [3]: much better antitumor effect than that of hsa-miR-34a
proliferation inhibitory effect on esophageal cancer cells [3]: strong proliferation inhibitory effect
proliferation inhibitory effect on cancer stem cells (cell viability) [1]: effectively suppress proliferation of cancer stem cells
antitumor effect [4]: much better antitumor effect than that of hsa-miR-34a
proliferation inhibitory effect on pancreatic cancer cells [4]: strong proliferation inhibitory effect
